Values after ≈ are worked out from the molar mass of the structure shown. Where a SMILES comes first, the peptide text is derived from it.
Legend:
[1] = system: A. baumannii #10; assay type: cell-based, Acinetobacter baumannii; settings: #10
Excerpt: (§1) To compare the antimicrobial activity among the peptides produced by the method of Example 1, the inventors of the present invention measured the minimal growth inhibitory concentration (MIC), which is minimum concentration of the peptide not allowing any […] of bacterial cells.
(§2) Specifically, the bacterial strains described in the following Table 2 were purchased and cultured to a mid-log phase in MHB (Mueller Hinton Broth) medium. Then, after dilution to bacterial cell concentration of 2×10^5 cells/50 μl, the cells were inoculated to a microtiter plate (NUNC, USA). Thereafter, LL37-1, LL37-2, LL37-3 or LL37-4 peptide which has been synthesized in Example 1 above was subjected to serial dilution, ½ times for each, in a 96-well plate. After adding the peptides in an amount of 50 μl to the cell plate, the cells were cultured for 18 hours at 37° C. By using a microtiter plate reader (Merck Elisa reader, Germany), the absorbance was measured at a wavelength of 600 nm to determine the MIC value of each bacterial strain. As a control group, LL37 as a mother peptide was used and subjected to the same process as above to determine the MIC value of each strain.

[2] = system: A. baumannii #11; assay type: cell-based, Acinetobacter baumannii; settings: #11
Excerpt: as §1, §2

[3] = system: A. baumannii #12; assay type: cell-based, Acinetobacter baumannii; settings: #12
Excerpt: as §1, §2

[4] = system: A. baumannii #13; assay type: cell-based, Acinetobacter baumannii; settings: #13
Excerpt: as §1, §2

[5] = system: A. baumannii #19; assay type: cell-based, Acinetobacter baumannii; settings: #19
Excerpt: as §1, §2

[6] = system: A. baumannii #2; assay type: cell-based, Acinetobacter baumannii; settings: #2
Excerpt: as §1, §2

[7] = system: A. baumannii #3; assay type: cell-based, Acinetobacter baumannii; settings: #3
Excerpt: as §1, §2

[8] = system: A. baumannii #4; assay type: cell-based, Acinetobacter baumannii; settings: #4
Excerpt: as §1, §2

[9] = system: A. baumannii #5; assay type: cell-based, Acinetobacter baumannii; settings: #5
Excerpt: as §1, §2

[10] = system: A. baumannii #8; assay type: cell-based, Acinetobacter baumannii; settings: #8
Excerpt: as §1, §2

[11] = system: A. baumannii #9; assay type: cell-based, Acinetobacter baumannii; settings: #9
Excerpt: as §1, §2

[12] = system: A. baumannii KCTC 2508; assay type: cell-based, Acinetobacter baumannii; settings: for Minimal inhibitory concentration: KCTC 2508, 18 h
Excerpt: as §1, §2

[13] = system: E. coli ATCC 25922; assay type: cell-based, Escherichia coli; settings: ATCC 25922, 18 h
Excerpt: as §1, §2

[14] = system: P. aeruginosa ATCC 27853; assay type: cell-based, Pseudomonas aeruginosa; settings: ATCC 27853, 18 h
Excerpt: as §1, §2

[15] = system: A. baumannii #10; assay: Antibiofilm activity, Crystal violet staining; assay type: cell-based, Acinetobacter baumannii; settings: 24 hours
Protocol: (§3) To compare the antimicrobial activity among the peptides produced by the method of Example 1, the inventors of the present invention measured the biofilm inhibitory concentration value of the peptide for not allowing any dissociation of bacterial cells.
(§4) Specifically, among the bacterial strains described in the above Table 2, bacteria showing the most favorable biofilm forming were cultured to a mid-log phase in a medium with suitable composition. Then, after dilution to bacterial cell concentration of 1×10^6 cells/50 μl, the cells were inoculated to a microtiter plate. Thereafter, LL37, LL37-1, LL37-2, LL37-3 or LL37-4 peptide which has been synthesized in Example 1 above was diluted, 1/10 times for each, with 10 mM phosphate buffered physiological saline (PBS) in a 96-well plate. After adding the peptide (50 μl) to each well of the plate, the cells were cultured for 24 hours at 37° C. After removing the supernatant completely, the cells were fixed with 100% methanol for 15 minutes and stained for 1 hour with Crystal violet staining solution followed by rinsing for 3 times. Then, after dissolving in 95% ethanol, the absorbance was measured at a wavelength of 595 nm by using a microtiter plate reader to determine the biofilm minimal inhibitory concentration value of each bacterial strain.

[16] = system: A. baumannii #5; assay: Antibiofilm activity, Crystal violet staining; assay type: cell-based, Acinetobacter baumannii; settings: 24 hours
Protocol: as §3, §4

[17] = system: A. baumannii KCTC 2508; assay: Antibiofilm activity, Crystal violet staining; assay type: cell-based, Acinetobacter baumannii; settings: 24 hours
Protocol: as §3, §4

[18] = system: Acinetobacter baumannii KCTC 2508; assay: Flow cytometry after PI staining (bacteria membrane); assay type: cell-based; settings: peptide at concentration of MIC, 30 minutes at 37° C.
Protocol: To determine whether or not the peptides prepared by the method of Example 1 have any effect on bacteria membrane, an analysis was made by flow cytometry.
After that, the supernatant was removed by centrifuge (10,000 rpm) and stained with propidium iodide (PI, concentration of 10 μg/ml) for 30 minutes at 4° C. Thereafter, unbound propidium iodide was removed by centrifuge, and the problem of cell aggregation phenomenon was solved by adding physiological saline (PBS) in an amount of 1 ml.

[19] = system: Acinetobacter baumannii KCTC 2508; assay: Low vacuum scanning electron microscopy (membrane-disrupting property); assay type: cell-based; settings: peptide at MIC concentration, 30 minutes at 37° C.
Protocol: To specifically determine the degree of antimicrobial activity of the synthesized peptides of the present invention, the influence of mother peptide LL37 and homologous peptides LL37-1, LL37-2, LL37-3 and LL37-4 on bacteria membrane, i.e., membrane-disrupting property, was determined by low vacuum scanning electron microscopy.
Specifically, Acinetobacter baumannii KCTC 2508 cells were cultured to a mid-log phase in MHB medium, and then diluted to a cell concentration of 2×10^7 cells/ml in physiological saline containing 10% MHB medium. […] After that, by using 2.5% glutaraldehyde, the bacterial cells were fixed for 30 minutes at room temperature and then for 12 hours at 4° C. After carrying out washing with buffer, the cells were fixed again with […] and dehydrated in stepwise manner by using ethanol. After the dehydration, platinum coating was carried out and the cells were observed by low vacuum scanning electron microscopy.

Structure (SMILES)	Minimal inhibitory concentration [1] [µM]	Minimal inhibitory concentration [2] [µM]	Minimal inhibitory concentration [3] [µM]	Minimal inhibitory concentration [4] [µM]	Minimal inhibitory concentration [5] [µM]	Minimal inhibitory concentration [6] [µM]	Minimal inhibitory concentration [7] [µM]	Minimal inhibitory concentration [8] [µM]	Minimal inhibitory concentration [9] [µM]	Minimal inhibitory concentration [10] [µM]	Minimal inhibitory concentration [11] [µM]	Minimal inhibitory concentration [12] [µM]	Minimal inhibitory concentration [13] [µM]	Minimal inhibitory concentration [14] [µM]	Biofilm forming ability ([15]; peptide 2 μM) [%]	Biofilm forming ability ([15]; peptide 4 μM) [%]	Biofilm forming ability ([15]; peptide 8 μM) [%]	Biofilm forming ability ([15]; peptide 16 μM) [%]	Biofilm forming ability ([15]; peptide 32 μM) [%]	Biofilm forming ability ([16]; peptide 2 μM) [%]	other results
CC[C@H](C)[C@H](NC(=O)[C@H](CCCNC(=N)N)NC(=O)[C@H](CCC(N)=O)NC(=O)[C@@H](NC(=O)[C@@H](NC(=O)[C@H](CCCNC(=N)N)NC(=O)[C@H](CCCCN)NC(=O)[C@H](Cc1ccccc1)NC(=O)[C@H](CCC(=O)O)NC(=O)[C@@H](N)CCCCN)[C@@H](C)CC)C(C)C)C(=O)N[C@@H](CCCCN)C(=O)N[C@@H](CCCCN)C(=O)N[C@@H](Cc1ccccc1)C(=O)N[C@@H](CC(C)C)C(=O)N[C@@H](CCCNC(=N)N)C(=O)N[C@@H](CC(N)=O)C(N)=O [LL37-3, KEFKRIVQRIKKFLRN-NH2] (H-KEFKRIVQRIKKFLRN-NH2; N-terminus assumed)	2 (≈ 4.21 µg/mL)	2 (≈ 4.21 µg/mL)	4 (≈ 8.41 µg/mL)	2 (≈ 4.21 µg/mL)	4 (≈ 8.41 µg/mL)	4 (≈ 8.41 µg/mL)	4 (≈ 8.41 µg/mL)	4 (≈ 8.41 µg/mL)	4 (≈ 8.41 µg/mL)	2 (≈ 4.21 µg/mL)	2 (≈ 4.21 µg/mL)	16 (≈ 33.6 µg/mL)	32 (≈ 67.3 µg/mL)	8 (≈ 16.8 µg/mL)	61	38	34	32	30	60	Biofilm forming ability ([16]; peptide 4 μM): 62%; Biofilm forming ability ([16]; peptide 8 μM): 26%; Biofilm forming ability ([16]; peptide 16 μM): 24%; Biofilm forming ability ([16]; peptide 32 μM): 20%; Biofilm forming ability ([17]; peptide 2 μM): 52%; Biofilm forming ability ([17]; peptide 4 μM): 41%; Biofilm forming ability ([17]; peptide 8 μM): 29%; Biofilm forming ability ([17]; peptide 16 μM): 25%; Biofilm forming ability ([17]; peptide 32 μM): 23%; effect on bacteria membrane (PI fluorescence, flow cytometry) [18]: bacteria membrane was damaged; membrane-disrupting property (scanning electron microscopy) [19]: disruption of bacteria membrane
CC[C@H](C)[C@H](NC(=O)[C@H](CCCNC(=N)N)NC(=O)[C@H](CCC(N)=O)NC(=O)[C@@H](NC(=O)[C@@H](NC(=O)[C@H](CCCNC(=N)N)NC(=O)[C@H](CCCCN)NC(=O)[C@H](Cc1ccccc1)NC(=O)[C@H](CCCCN)NC(=O)[C@@H](N)CCCCN)[C@@H](C)CC)C(C)C)C(=O)N[C@@H](CCCCN)C(=O)N[C@@H](CCCCN)C(=O)N[C@@H](Cc1ccccc1)C(=O)N[C@@H](CC(C)C)C(=O)N[C@@H](CCCNC(=N)N)C(=O)N[C@@H](CC(N)=O)C(N)=O [LL37-4, KKFKRIVQRIKKFLRN-NH2] (H-KKFKRIVQRIKKFLRN-NH2; N-terminus assumed)	2 (≈ 4.2 µg/mL)	2 (≈ 4.2 µg/mL)	2 (≈ 4.2 µg/mL)	2 (≈ 4.2 µg/mL)	4 (≈ 8.41 µg/mL)	2 (≈ 4.2 µg/mL)	2 (≈ 4.2 µg/mL)	2 (≈ 4.2 µg/mL)	2 (≈ 4.2 µg/mL)	2 (≈ 4.2 µg/mL)	2 (≈ 4.2 µg/mL)	4 (≈ 8.41 µg/mL)	16 (≈ 33.6 µg/mL)	4 (≈ 8.41 µg/mL)	49	37	33	33	30	74	Minimal inhibitory concentration of antimicrobial peptide ([12]; KCTC 2508): 4 µM; Biofilm forming ability ([16]; peptide 4 μM): 59%; Biofilm forming ability ([16]; peptide 8 μM): 49%; Biofilm forming ability ([16]; peptide 16 μM): 22%; Biofilm forming ability ([16]; peptide 32 μM): 20%; Biofilm forming ability ([17]; peptide 2 μM): 48%; Biofilm forming ability ([17]; peptide 4 μM): 32%; Biofilm forming ability ([17]; peptide 8 μM): 28%; Biofilm forming ability ([17]; peptide 16 μM): 23%; Biofilm forming ability ([17]; peptide 32 μM): 22%; effect on bacteria membrane (PI fluorescence, flow cytometry) [18]: bacteria membrane was damaged; membrane disruption compared to LL37-1 and LL37-3 (scanning electron microscopy) [19]: disrupted more; membrane-disrupting property (scanning electron microscopy) [19]: disruption of bacteria membrane
